# Values quoted from earlier work, collected in patent US5565431A, “Cancer cell inhibitors and method” (priority 1994, dated 1996).
# Legend:
# [1] = test system: normal colonic mucosa cells; conditions: Garcia et al. (9)
# [2] = test system: seven colon cancer cell lines; conditions: Garcia et al. (9)
smiles,measurement,setting,value
CO[C@H]1[C@@H](OC)C[C@H](C)[C@@H](OC)C2=CC(=O)C=C(NC(=O)/C(C)=C/C=C\[C@H](OC)[C@@H](OC(N)=O)/C(C)=C/[C@@H]1C)C2=O [herbimycin A],Inhibition of normal colonic mucosa cells,[1],12%
same,Inhibition of seven colon cancer cell lines,[2],greater than 40%
